In patent US7687644B2, “Adamantyl pyrrolidin-2-one derivatives as 11-beta hydroxysteroid dehydrogenase inhibitors” (Janssen Pharmaceutica NV, priority 2004, dated 2010):

How the values were obtained:
11β-HSD1 [1] = molecular target: T1, 11β-HSD1 (Mus musculus, UniProt P50172); assay: Cellular assay, 11β-HSD1 activity in differentiated 3T3-L1 cells; assay type: cell-based; conditions: 4 hour pre-incubation, read-out: [C2] HSD1 cellular 3T3-L1 Score
T1 construct: endogenous in cells; host or cells: 3T3-L1 (ATCC-CL-173), differentiated into adipocytes
T1 sequence (P50172 whole entry): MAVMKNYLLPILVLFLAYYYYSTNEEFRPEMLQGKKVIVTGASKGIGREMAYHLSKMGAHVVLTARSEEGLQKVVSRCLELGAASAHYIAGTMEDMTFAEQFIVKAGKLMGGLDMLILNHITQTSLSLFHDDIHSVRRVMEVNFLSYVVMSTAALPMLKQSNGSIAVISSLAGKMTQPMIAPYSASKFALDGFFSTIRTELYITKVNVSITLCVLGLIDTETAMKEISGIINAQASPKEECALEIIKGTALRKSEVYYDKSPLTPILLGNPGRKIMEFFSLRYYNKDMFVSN
Method: The effects on 11β-HSD1 activity was measured in differentiated 3T3-L1 cells and rat hepatocytes.
Medium was refreshed twice a week.
One hour later, the medium was extracted on Extrelut^3-columns with 15 ml diethyl ether and the extract was analysed by HPLC as described above.
As for the enzymatic assays, the compounds to be tested were taken from a stock is solution and tested at a final concentration ranging from −10^−5M to 3·10^−9M.

11β-HSD1 [2] = molecular target: 11β-HSD1 (Homo sapiens, UniProt P28845); assay: Enzymatic assay, 11β-HSD1 reductase activity (conversion of cortisone into cortisol); assay type: biochemical; conditions: recombinant protein, 2 μM cortisone, 45 minutes at 37° C.; read-out: [C1] HSD1-prot Reduct Score
Sequence of 11β-HSD1 (Homo sapiens, UniProt P28845) (P28845 whole entry, species assumed): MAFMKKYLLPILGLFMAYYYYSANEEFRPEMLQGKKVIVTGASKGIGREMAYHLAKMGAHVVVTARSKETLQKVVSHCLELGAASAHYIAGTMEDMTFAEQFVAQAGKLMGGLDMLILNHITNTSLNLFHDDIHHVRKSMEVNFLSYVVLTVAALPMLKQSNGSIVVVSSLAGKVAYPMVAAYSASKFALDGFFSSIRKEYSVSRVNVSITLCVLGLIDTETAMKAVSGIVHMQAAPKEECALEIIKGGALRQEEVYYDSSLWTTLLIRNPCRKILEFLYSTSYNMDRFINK
Method: The effects of compounds on 11β-HSD1 dependent conversion of cortisone into cortisol (reductase activity) was studied in a reaction mixture containing 30 mM Tris-HCl buffer pH 7.2, 180 μM NADPH, 1 mM EDTA, 2 μM cortisone, 1 μl drug and/or solvent and 11 μg recombinant protein in a final volume of 100 μl.
(§1) All incubations were performed for 45 minutes at 37° C. in a water bath. The reaction was stopped by adding 100 μl acetonitrile containing 20 μg corticosterone as internal standard. After centrifugation, the product formation was analysed in the supernatant by HPLC on a Hypersyl BDS-C18 column using 0.05 mM ammonium acetate/methanol (50/50) as solvent. In all of the aforementioned assays, the drugs to be tested were taken from a stock solution and tested at a final concentration ranging from −10^−5M to 3·10^−9M. From the thus obtained dose response curves, the pIC50 value was calculated and scored as follows; Score 1=pIC50 value<5, Score 2=pIC50 value in the range of 5 to 6, Score 3=pIC50 value>6. Some of the thus obtained results are summarized in the table below (in this table NT stands for Not Tested).

11β-HSD2 [3] = molecular target: T2, 11β-HSD2 (Homo sapiens, UniProt P80365); assay: Cellular assay, 11β-HSD2 activity in HepG2 cells; assay type: cell-based; set-up: endogenous in cells; host or cells: HepG2 (ATCC HB-8065); conditions: 4 hour pre-incubation, read-out: [C2] HSD2 cellular HepG2 Score
T2 sequence (P80365 1-405): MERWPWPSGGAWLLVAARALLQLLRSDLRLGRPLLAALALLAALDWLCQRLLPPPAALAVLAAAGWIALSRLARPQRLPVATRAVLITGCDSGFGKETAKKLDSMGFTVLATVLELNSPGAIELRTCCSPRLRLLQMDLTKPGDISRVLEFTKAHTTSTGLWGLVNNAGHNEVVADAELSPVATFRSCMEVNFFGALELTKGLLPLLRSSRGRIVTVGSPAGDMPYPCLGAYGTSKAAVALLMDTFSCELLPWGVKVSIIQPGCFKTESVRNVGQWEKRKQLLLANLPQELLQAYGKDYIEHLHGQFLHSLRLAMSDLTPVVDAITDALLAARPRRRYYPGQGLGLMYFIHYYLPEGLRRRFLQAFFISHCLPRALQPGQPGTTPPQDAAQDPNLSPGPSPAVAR
Method: The effects on 11β-HSD2 activity was studied in HepG2 and LCC-PK1-cells HepG2-cells (ATCC HB-8065) were seeded in 12 well plates at a density of 100,000′ cells/ml and grown at 37° C. in a humidified 5% CO2 atmosphere in MEM-Rega-3 medium supplemented with 10% heat inactivated foetal calf serum, 2 mM L-glutamine and sodium bicarbonate). Medium was refreshed twice a week.
Following a 4 hour pre-incubation with test compound, 0.5 μCi ^3H-cortisol or corticosterone, was added to the cultures. One hour later, the medium was extracted on Extrelut^3-columns with 15 ml diethyl ether and the extract was analysed by HPLC as described above.
As for the enzymatic assays, the compounds to be tested were taken from a stock is solution and tested at a final concentration ranging from −10^−5M to 3·10^−9M. From the thus obtained dose response curves, the pIC50 value was calculated and scored as follows; Score 1=pIC50 value<5, Score 2=pIC50 value in the range of 5 to 6, Score 3=pIC50 value>6. Some of the thus obtained results are summarized in the table below (in this table NT stands for Not Tested).

11β-HSD2 [4] = molecular target: T2, 11β-HSD2; assay: Enzymatic assay, 11β-HSD2 dependent dehydrogenase activity; assay type: biochemical; conditions: recombinant protein, 100 nM cortisol, 45 minutes at 37° C.; read-out: [C1] HSD2-prot Dehydro Score
Method: The effects on the 11β-HSD2 dependent dehydrogenase activity was studied in a reaction mixture containing 0.1M sodium phosphate buffer pH 7.5, 300 μM NAD, 100 nM cortisol (of which 2 nM is 3H-radio labelled), 1 μl drug and/or solvent and 2.5 μg recombinant protein in a final volume of 100 μl.
as §1

IC50 (11β-HSD1 [1]) [nM] | SMILES | further results
> 10000 | COc1cc(CC2(C)CCCN(C3C4CC5CC(C4)CC3C5)C2=O)cc(OC)c1 (centres unmarked) [Compound 28] | 
< 1000 | COc1cccc(CC2(C)CCN(C3C4CC5CC(C4)CC3C5)C2=O)c1 (centres unmarked) [Compound 29] | IC50 (11β-HSD1 [2]): < 1000 nM; IC50 (11β-HSD2 [3]): 1000 to 10000 nM
< 1000 | CC1(Cc2ccc(F)cc2)CCN(C2C3CC4CC(C3)CC2C4)C1=O (centres unmarked) [Compound 30] | IC50 (11β-HSD1 [2]): < 1000 nM; IC50 (11β-HSD2 [3]): > 10000 nM
> 10000 | COc1cccc(CC2(Cc3cccc(OC)c3)CCCN(C3C4CC5CC(C4)CC3C5)C2=O)c1 (centres unmarked) [Compound 31] | 
< 1000 | CC1(Cc2ccccc2)CCN(C2C3CC4CC(C3)CC2C4)C1=O (centres unmarked) [Compound 32] | 
< 1000 | O=C1C(Cc2ccccc2)CCN1C1C2CC3CC(C2)CC1C3 (centres unmarked) [Compound 33] | 
> 10000 | O=C1N(C2C3CC4CC(C3)CC2C4)C2CCC1(c1ccccc1)CC2 (centres unmarked) [Compound 34] | 
< 1000 | CC1(c2ccccc2)CCN(C2C3CC4CC(C3)CC2C4)C1=O (centres unmarked) [Compound 35] | 
< 1000 | O=C1N(C2C3CC4CC(C3)CC2C4)C2CCC1(Cc1ccccc1)CC2 (centres unmarked) [Compound 36] | 
< 1000 | O=C1C(Cc2ccccc2)CCN1[C@@H]1CC[C@]2(O)CC3CC2[C@H]1C3 (some centres unmarked) [Compound 37] | IC50 (11β-HSD2 [3]): > 10000 nM
< 1000 | CC1(Cc2ccccc2)CCN([C@@H]2CC[C@]3(O)CC4CC3[C@H]2C4)C1=O (some centres unmarked) [Compound 38] | IC50 (11β-HSD2 [4]): > 10000 nM
< 1000 | Cc1cccc(CC2CCN([C@@H]3CC[C@]4(O)CC5CC4[C@H]3C5)C2=O)c1F (some centres unmarked) [Compound 39] | IC50 (11β-HSD2 [4]): > 10000 nM
< 1000 | Cc1cccc(CC2(C)CCN([C@@H]3CC[C@]4(O)CC5CC4[C@H]3C5)C2=O)c1F (some centres unmarked) [Compound 40] | IC50 (11β-HSD2 [4]): > 10000 nM; IC50 (11β-HSD2 [3]): 1000 to 10000 nM

The remaining lines, values behind:

SMILES | IC50 (11β-HSD1 [1]) [nM] | further results
Cc1cccc(CC2CCN(C3C4CC5CC(C4)CC3C5)C2=O)c1F (centres unmarked) [Compound 1] | < 1000 | melting point: 101 to 102 °C; IC50 (11β-HSD1 [2]): < 1000 nM; IC50 (11β-HSD2 [3]): > 10000 nM
Cc1cccc(CC2(C)CCN(C3C4CC5CC(C4)CC3C5)C2=O)c1F (centres unmarked) [Compound 2] | < 1000 | melting point: 120.5 to 122 °C; IC50 (11β-HSD1 [2]): < 1000 nM; IC50 (11β-HSD2 [3]): > 10000 nM
COc1cccc(CC2CCN(C3C4CC5CC(C4)CC3C5)C2=O)c1 (centres unmarked) [Compound 3] | < 1000 | IC50 (11β-HSD1 [2]): < 1000 nM; IC50 (11β-HSD2 [3]): > 10000 nM
O=C1C(Cc2cccc(OC(F)(F)F)c2)CCN1C1C2CC3CC(C2)CC1C3 (centres unmarked) [Compound 4] | < 1000 | 
O=C1C(Cc2cccc(Br)c2)CCN1C1C2CC3CC(C2)CC1C3 (centres unmarked) [Compound 5] | < 1000 | 
N#Cc1cccc(CC2CCN(C3C4CC5CC(C4)CC3C5)C2=O)c1 (centres unmarked) [Compound 6] | < 1000 | 
O=C1C(Cc2cccc(C(F)(F)F)c2F)CCN1C1C2CC3CC(C2)CC1C3 (centres unmarked) [Compound 7] | < 1000 | 
COc1cc(CC2CCN(C3C4CC5CC(C4)CC3C5)C2=O)cc(OC)c1 (centres unmarked) [Compound 8] | < 1000 | IC50 (11β-HSD1 [2]): < 1000 nM; IC50 (11β-HSD2 [3]): > 10000 nM
O=C1C(Cc2cc(C(F)(F)F)cc(C(F)(F)F)c2)CCN1C1C2CC3CC(C2)CC1C3 (centres unmarked) [Compound 9] | > 10000 | 
O=C1C(Cc2cc(F)cc(C(F)(F)F)c2)CCN1C1C2CC3CC(C2)CC1C3 (centres unmarked) [Compound 10] | 1000 to 10000 | 
Cc1cc(C)cc(CC2CCN(C3C4CC5CC(C4)CC3C5)C2=O)c1 (centres unmarked) [Compound 11] | < 1000 | 
Cc1cccc(C)c1CC1CCN(C2C3CC4CC(C3)CC2C4)C1=O (centres unmarked) [Compound 12] | > 10000 | 
O=C1C(Cc2ccc(Cl)cc2)CCN1C1C2CC3CC(C2)CC1C3 (centres unmarked) [Compound 13] | > 10000 | IC50 (11β-HSD1 [2]): < 1000 nM; IC50 (11β-HSD2 [3]): > 10000 nM
O=C1C(Cc2ccc(F)cc2)CCN1C1C2CC3CC(C2)CC1C3 (centres unmarked) [Compound 14] | < 1000 | IC50 (11β-HSD1 [2]): < 1000 nM; IC50 (11β-HSD2 [3]): > 10000 nM
O=C1C(Cc2ccc(OC(F)(F)F)cc2)CCN1C1C2CC3CC(C2)CC1C3 (centres unmarked) [Compound 15] | > 10000 | 
Cc1ccc(CC2CCN(C3C4CC5CC(C4)CC3C5)C2=O)cc1 (centres unmarked) [Compound 16] | < 1000 | IC50 (11β-HSD1 [2]): < 1000 nM; IC50 (11β-HSD2 [3]): > 10000 nM
CC1(Cc2ccc(OC(F)(F)F)cc2)CCN(C2C3CC4CC(C3)CC2C4)C1=O (centres unmarked) [Compound 17] | < 1000 | 
Cc1cccc(C)c1CC1(C)CCN(C2C3CC4CC(C3)CC2C4)C1=O (centres unmarked) [Compound 18] | > 10000 | 
Cc1cc(C)cc(CC2(C)CCN(C3C4CC5CC(C4)CC3C5)C2=O)c1 (centres unmarked) [Compound 19] | < 1000 | 
COc1cc(CC2(C)CCN(C3C4CC5CC(C4)CC3C5)C2=O)cc(OC)c1 (centres unmarked) [Compound 20] | < 1000 | 
COc1cccc(CC2CCCN(C3C4CC5CC(C4)CC3C5)C2=O)c1 (centres unmarked) [Compound 21] | < 1000 | 
Cc1cccc(C)c1CC1CCCN(C2C3CC4CC(C3)CC2C4)C1=O (centres unmarked) [Compound 22] | > 10000 | 
O=C1C(Cc2ccc(OC(F)(F)F)cc2)CCCN1C1C2CC3CC(C2)CC1C3 (centres unmarked) [Compound 23] | > 10000 | 
Cc1cc(C)cc(CC2CCCN(C3C4CC5CC(C4)CC3C5)C2=O)c1 (centres unmarked) [Compound 24] | > 10000 | 
COc1cc(CC2CCCN(C3C4CC5CC(C4)CC3C5)C2=O)cc(OC)c1 (centres unmarked) [Compound 25] | < 1000 | 
Cc1cccc(CC2CCCN(C3C4CC5CC(C4)CC3C5)C2=O)c1F (centres unmarked) [Compound 26] | < 1000 | 
COc1cccc(CC2(C)CCCN(C3C4CC5CC(C4)CC3C5)C2=O)c1 (centres unmarked) [Compound 27] | > 10000 | 
